Common to all, as to assay: relative viability (nuclei count vs DMSO), 5 days (fraction); higher = more cells survive
Compound in the assay “Dovitinib + Crizotinib”: CN1CCN(c2ccc3nc(-c4c(N)c5c(F)cccc5[nH]c4=O)[nH]c3c2)CC1 [Dovitinib] + C[C@@H](Oc1cc(-c2cnn(C3CCNCC3)c2)cnc1N)c1c(Cl)ccc(F)c1Cl [Crizotinib] (partner 1 µM)
Summed up: (§1)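 Nuclei were stained with Hoechst during a one-step fixation (final 0.05% Triton X-100, 1% formaldehyde, 1 ug/ml Hoechst) carried out 5 days after dosing, then counted on 4× images. The cells, lung cancer lines in 1536-well plates, had been dosed by pin tool the day after seeding with one drug alone or a fixed anchor-drug dose plus five library-drug doses (not always all listed) in √10 steps. Relative viability is the nuclei count in treated wells divided by that in vehicle wells, and each value is the median of duplicate plates.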

Compound in the assay “Dovitinib + OSI-027”: CN1CCN(c2ccc3nc(-c4c(N)c5c(F)cccc5[nH]c4=O)[nH]c3c2)CC1 [Dovitinib] + COc1cccc2cc(-c3nc([C@H]4CC[C@H](C(=O)O)CC4)n4ncnc(N)c34)[nH]c12 [OSI-027] (partner 0.5 µM)
Summed up:
as §1

Compound in the assay “Dovitinib + Tozasertib”: CN1CCN(c2ccc3nc(-c4c(N)c5c(F)cccc5[nH]c4=O)[nH]c3c2)CC1 [Dovitinib] + Cc1cc(Nc2cc(N3CCN(C)CC3)nc(Sc3ccc(NC(=O)C4CC4)cc3)n2)n[nH]1 [Tozasertib] (partner 0.1 µM)
Summed up:
as §1

Compound in the assay “Dovitinib + Linsitinib”: CN1CCN(c2ccc3nc(-c4c(N)c5c(F)cccc5[nH]c4=O)[nH]c3c2)CC1 [Dovitinib] + C[C@]1(O)C[C@@H](c2nc(-c3ccc4ccc(-c5ccccc5)nc4c3)c3c(N)nccn32)C1 [Linsitinib] (partner 1 µM)
Summed up:
as §1

HCC-827: the relative viability with Dovitinib + Crizotinib (first compound 0.02 µM) is 0.91; in the assay with Dovitinib + Crizotinib (first compound 0.06325 µM), 0.867; in the assay with Dovitinib + Crizotinib (first compound 0.2 µM), 0.932; in the assay with Dovitinib + Crizotinib (first compound 0.6325 µM), 0.93; in the assay with Dovitinib + Crizotinib (first compound 2 µM) it was 0.94; with Dovitinib + OSI-027 (first compound 0.02 µM), 0.797. The relative viability with Dovitinib + OSI-027 (first compound 0.06325 µM) was found to be 0.791; with Dovitinib + OSI-027 (first compound 0.2 µM) it was 0.818; with Dovitinib + OSI-027 (first compound 0.6325 µM), 0.833; in the assay with Dovitinib + OSI-027 (first compound 2 µM) it was 0.759; in the assay with Dovitinib + Tozasertib (first compound 0.02 µM), 0.44; with Dovitinib + Tozasertib (first compound 0.06325 µM), 0.455. Moreover, the relative viability amounted to 0.441 in the assay with Dovitinib + Tozasertib (first compound 0.2 µM); 0.43 in the assay with Dovitinib + Tozasertib (first compound 0.6325 µM); 0.469 with Dovitinib + Tozasertib (first compound 2 µM); 0.895 with Dovitinib + Linsitinib (first compound 0.02 µM); 0.97 with Dovitinib + Linsitinib (first compound 0.06325 µM); 0.959 in the assay with Dovitinib + Linsitinib (first compound 0.2 µM). Besides, the relative viability was 0.928 in the assay with Dovitinib + Linsitinib (first compound 0.6325 µM) and 0.898 with Dovitinib + Linsitinib (first compound 2 µM).
NCI-H3122: the relative viability with Dovitinib + Crizotinib (first compound 0.02 µM) is 0.294; with Dovitinib + Crizotinib (first compound 0.06325 µM) it was 0.27; with Dovitinib + Crizotinib (first compound 0.2 µM), 0.287; with Dovitinib + Crizotinib (first compound 0.6325 µM), 0.284; with Dovitinib + Crizotinib (first compound 2 µM), 0.263; with Dovitinib + OSI-027 (first compound 0.02 µM), 1.02. The relative viability was found to be 0.959 in the assay with Dovitinib + OSI-027 (first compound 0.06325 µM); 1 in the assay with Dovitinib + OSI-027 (first compound 0.2 µM); 0.876 with Dovitinib + OSI-027 (first compound 0.6325 µM); 0.915 in the assay with Dovitinib + OSI-027 (first compound 2 µM); 0.37 in the assay with Dovitinib + Tozasertib (first compound 0.02 µM); 0.368 with Dovitinib + Tozasertib (first compound 0.06325 µM). Also, the relative viability with Dovitinib + Tozasertib (first compound 0.2 µM) turned out to be 0.488; in the assay with Dovitinib + Tozasertib (first compound 0.6325 µM) it was 0.406; in the assay with Dovitinib + Tozasertib (first compound 2 µM), 0.415; with Dovitinib + Linsitinib (first compound 0.02 µM) it was 1; with Dovitinib + Linsitinib (first compound 0.06325 µM), 0.95; in the assay with Dovitinib + Linsitinib (first compound 0.2 µM), 1.07. The relative viability in the assay with Dovitinib + Linsitinib (first compound 0.6325 µM) turned out to be 1.1; with Dovitinib + Linsitinib (first compound 2 µM), 0.991.
Regarding HOP-62, the relative viability is 0.861 in the assay with Dovitinib + Crizotinib (first compound 0.02 µM); 0.923 with Dovitinib + Crizotinib (first compound 0.06325 µM); 1.15 in the assay with Dovitinib + Crizotinib (first compound 0.2 µM); 0.943 with Dovitinib + Crizotinib (first compound 0.6325 µM); 1.01 with Dovitinib + Crizotinib (first compound 2 µM); 0.794 with Dovitinib + OSI-027 (first compound 0.02 µM). The relative viability with Dovitinib + OSI-027 (first compound 0.06325 µM) was 0.79; with Dovitinib + OSI-027 (first compound 0.2 µM), 0.866; with Dovitinib + OSI-027 (first compound 0.6325 µM) it was 0.925; in the assay with Dovitinib + OSI-027 (first compound 2 µM), 0.855; in the assay with Dovitinib + Tozasertib (first compound 0.02 µM), 0.316; in the assay with Dovitinib + Tozasertib (first compound 0.06325 µM), 0.401. Besides, the relative viability with Dovitinib + Tozasertib (first compound 0.2 µM) turned out to be 0.346; with Dovitinib + Tozasertib (first compound 0.6325 µM), 0.384; with Dovitinib + Tozasertib (first compound 2 µM), 0.424; with Dovitinib + Linsitinib (first compound 0.02 µM), 0.784; in the assay with Dovitinib + Linsitinib (first compound 0.06325 µM), 0.852; in the assay with Dovitinib + Linsitinib (first compound 0.2 µM), 1.1. In addition, the relative viability came out at 0.921 in the assay with Dovitinib + Linsitinib (first compound 0.6325 µM) and 1.03 in the assay with Dovitinib + Linsitinib (first compound 2 µM).
As to HCC-44, the relative viability with Dovitinib + Crizotinib (first compound 0.02 µM) came to 0.668; with Dovitinib + Crizotinib (first compound 0.06325 µM), 0.793; in the assay with Dovitinib + Crizotinib (first compound 0.2 µM), 0.76; with Dovitinib + Crizotinib (first compound 0.6325 µM), 0.745; with Dovitinib + Crizotinib (first compound 2 µM), 0.777; with Dovitinib + OSI-027 (first compound 0.02 µM), 0.538. Further, the relative viability with Dovitinib + OSI-027 (first compound 0.06325 µM) turned out to be 0.578; in the assay with Dovitinib + OSI-027 (first compound 0.2 µM) it was 0.569; with Dovitinib + OSI-027 (first compound 0.6325 µM), 0.485; in the assay with Dovitinib + OSI-027 (first compound 2 µM) it was 0.524; in the assay with Dovitinib + Tozasertib (first compound 0.02 µM) it was 0.724; in the assay with Dovitinib + Tozasertib (first compound 0.06325 µM), 1.03. Further, the relative viability with Dovitinib + Tozasertib (first compound 0.2 µM) turned out to be 0.99; in the assay with Dovitinib + Tozasertib (first compound 0.6325 µM) it was 0.884; with Dovitinib + Tozasertib (first compound 2 µM), 0.938; with Dovitinib + Linsitinib (first compound 0.02 µM), 0.681; in the assay with Dovitinib + Linsitinib (first compound 0.06325 µM), 0.667; in the assay with Dovitinib + Linsitinib (first compound 0.2 µM), 0.681. Further, the relative viability with Dovitinib + Linsitinib (first compound 0.6325 µM) is 0.773; with Dovitinib + Linsitinib (first compound 2 µM) it was 0.628.
